# Reference: patent US7138361B2, “Herbicidal heterocycles” (E. I. du Pont de Nemours and Company, priority 2000, dated 2006)
# Columns and labels:
# Type in all cases: in vivo
# Sunflower [1] = test: Test C preemergence; details: Rate 500 g/ha, visual evaluation after 12 to 14 days
# Nightshade = test: Test C preemergence
# [2] = system: common ragweed (Ambrosia elatior); test: Test C preemergence; details: for Plant response rating (0 to 100), Ragweed, Common: Rate 500 g/ha, visual evaluation after 12 to 14 days
# How it was run: (§1)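 Seeds are planted and treated before emergence; for the postemergence test, plants at 1- to 4-leaf stage (2–18 cm) receive the same formulation, a solvent blend containing surfactant. Plants stay in the greenhouse 12–14 days, then response is scored visually from 0 (none) to 100 (complete control).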
# [3] = system: lambsquarters (Chenopodium album); test: Test C preemergence; details: for Plant response rating (0 to 100), Lambsquarters: Rate 500 g/ha, visual evaluation after 12 to 14 days
# How it was run: as §1
# [4] = system: johnsongrass (Sorghum halepense); test: Test C preemergence; details: for Plant response rating (0 to 100), Johnsongrass: Rate 500 g/ha, visual evaluation after 12 to 14 days
# How it was run: as §1
# [5] = system: velvetleaf (Abutilon theophrasti); test: Test C preemergence; details: for Plant response rating (0 to 100), Velvetleaf: Rate 500 g/ha, visual evaluation after 12 to 14 days
# How it was run: as §1
# corn (Zea mays) [6] = test: Test C preemergence; details: for Plant response rating (0 to 100), Corn: Rate 500 g/ha, visual evaluation after 12 to 14 days
# How it was run: as §1
# Sunflower [7] = test: Test C preemergence; details: Rate 125 g/ha; scale 0 to 100, 0 no effect, 100 complete control
# [8] = system: morningglory (Ipomoea hederacea); test: Test C preemergence; details: for Plant response rating (0 to 100), Morningglory: Rate 500 g/ha, visual evaluation after 12 to 14 days
# How it was run: as §1
# [9] = system: goosegrass (Eleusine indica); test: Test C preemergence; details: for Plant response rating (0 to 100), Goosegrass: Rate 500 g/ha, visual evaluation after 12 to 14 days
# How it was run: as §1
# [10] = system: yellow nutsedge (Cyperus esculentus); test: Test C preemergence; details: for Plant response rating (0 to 100), Nutsedge: Rate 500 g/ha, visual evaluation after 12 to 14 days
# How it was run: as §1
# wild oat (Avena fatua) = test: Test B postemergence
# How it was run: (§2)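 Visual injury scores, 0 = no effect to 100 = complete control, assigned against controls after 13 to 15 days in the greenhouse. Compounds formulated in non-phytotoxic solvent plus surfactant and applied to soil after planting (pre) or onto foliage of 1- to 4-leaf plants (post).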
# [11] = system: pigweed (Amaranthus retroflexus); test: Test B postemergence
# How it was run: as §2
# [12] = system: crabgrass (Digitaria sanguinalis); test: Test B postemergence
# How it was run: as §2
# [13] = system: cocklebur (Xanthium strumarium); test: Test B postemergence
# How it was run: as §2
# [14] = system: wheat (Triticum aestivum); test: Test B postemergence
# How it was run: as §2
# [15] = system: velvetleaf (Abutilon theophrasti); test: Test B postemergence
# How it was run: as §2
# [16] = system: barnyardgrass (Echinochloa crus-galli); test: Test B postemergence
# How it was run: as §2
# [17] = system: giant foxtail (Setaria faberii); test: Test B postemergence
# How it was run: as §2
# corn (Zea mays) [18] = test: Test B postemergence
# How it was run: as §2
# [19] = system: Surinam grass (Brachiaria decumbens); test: Test B postemergence
# How it was run: as §2
# [20] = system: morning glory (Ipomoea hederacea); test: Test B postemergence
# How it was run: as §2
# [21] = Rate 125 g/ha, scale 0 to 100, 0 no effect, 100 complete control
# [22] = Rate 250 g/ha, scale 0 to 100, 0 no effect, 100 complete control
# [23] = preemergence, Rate 62 g/ha, scale 0 to 100
# [24] = preemergence, Rate 250 g/ha, scale 0 to 100, 0 no effect, 100 complete control
# [25] = Rate 500 g/ha, scale 0 to 100, 0 is no effect, 100 is complete control, 13 to 15 days
# [26] = Rate 125 g/ha, scale 0 (no effect) to 100 (complete control), 13 to 15 days
compound,measurement,setting,value
CCCOc1cc(N2CCC(n3ccc(C(C)(C)C)n3)C2=O)ccc1C (stereo not shown) [Compound 107],"Plant response rating (0 to 100), Sunflower",Sunflower [1],70
same,"Plant response rating, Nightshade","Nightshade; Rate 62 g/ha, scale 0 to 100",80
same,"Plant response rating, Nightshade",Nightshade; [21],90
same,"Plant response rating, Nightshade",Nightshade; [22],90
same,"Plant response rating, Ragweed, Common",[2]; [21],30
same,"Plant response rating, Ragweed, Common",[2]; [23],0
same,"Plant response rating (0 to 100), Ragweed, Common",[2]; preemergence,70
same,"Plant response rating, Ragweed, Common",[2]; [24],60
same,"Plant response rating, Lambsquarters",[3]; [21],100
same,"Plant response rating, Lambsquarters",[3]; [23],90
same,"Plant response rating (0 to 100), Lambsquarters",[3]; preemergence,100
same,"Plant response rating, Lambsquarters",[3]; [24],100
same,"Plant response rating, Johnsongrass",[4]; [21],20
same,"Plant response rating (0 to 100), Johnsongrass",[4]; preemergence,50
same,"Plant response rating, Johnsongrass",[4]; [24],50
same,"Plant response rating, Velvetleaf",[5]; [21],50
same,"Plant response rating, Velvetleaf",[5]; [23],40
same,"Plant response rating (0 to 100), Velvetleaf",[5]; preemergence,100
same,"Plant response rating, Velvetleaf",[5]; [24],50
same,"Plant response rating, Corn",corn (Zea mays) [6]; [21],0
same,"Plant response rating, Corn",corn (Zea mays) [6]; [23],0
same,"Plant response rating (0 to 100), Corn",corn (Zea mays) [6]; preemergence,10
same,"Plant response rating, Corn",corn (Zea mays) [6]; [24],0
same,"Plant response rating, Sunflower",Sunflower [7],0
same,"Plant response rating, Morningglory",[8]; [21],0
same,"Plant response rating, Morningglory",[8]; [23],0
same,"Plant response rating (0 to 100), Morningglory",[8]; preemergence,100
same,"Plant response rating, Morningglory",[8]; [24],0
same,"Plant response rating, Goosegrass",[9]; [21],70
same,"Plant response rating, Goosegrass",[9]; [23],10
same,"Plant response rating (0 to 100), Goosegrass",[9]; preemergence,100
same,"Plant response rating, Goosegrass",[9]; [24],80
same,"Plant response rating, Nutsedge",[10]; [21],0
same,"Plant response rating, Nutsedge",[10]; [23],0
same,"Plant response rating (0 to 100), Nutsedge",[10]; preemergence,0
same,"Plant response rating, Nutsedge",[10]; [24],0
same,"Plant response rating, Wild Oat",wild oat (Avena fatua); [25],0
same,"Plant response rating, Pigweed",[11]; [25],90
same,"Plant response rating, Crabgrass",[12]; [26],0
same,"Plant response rating, Crabgrass",[12]; [25],0
same,"Plant response rating, Cocklebur",[13]; [26],70
same,"Plant response rating, Cocklebur",[13]; [25],100
same,"Plant response rating, Wheat",[14]; [25],0
same,"Plant response rating, Velvetleaf",[15]; [25],70
same,"Plant response rating, Barnyardgrass",[16]; [26],0
same,"Plant response rating, Barnyardgrass",[16]; [25],0
same,"Plant response rating, Foxtail, Giant",[17]; [26],0
same,"Plant response rating, Foxtail, Giant",[17]; [25],0
same,"Plant response rating, Corn",corn (Zea mays) [18]; [26],0
same,"Plant response rating, Corn",corn (Zea mays) [18]; [25],0
same,"Plant response rating, Surinam grass",[19]; [26],0
same,"Plant response rating, Surinam grass",[19]; [25],0
same,"Plant response rating, Morningglory",[20]; [25],70
CC(C)c1cccc(N2CCC(n3ccc(C(C)(C)C)n3)C2=O)c1 (stereo not shown) [Compound 111],"Plant response rating (0 to 100), Sunflower",Sunflower [1],0
same,"Plant response rating, Nightshade","Nightshade; Rate 62 g/ha, scale 0 to 100",0
same,"Plant response rating, Nightshade",Nightshade; [21],0
same,"Plant response rating, Nightshade",Nightshade; [22],0
same,"Plant response rating, Ragweed, Common",[2]; [21],0
same,"Plant response rating, Ragweed, Common",[2]; [23],0
same,"Plant response rating (0 to 100), Ragweed, Common",[2]; preemergence,0
same,"Plant response rating, Ragweed, Common",[2]; [24],0
same,"Plant response rating, Lambsquarters",[3]; [21],85
same,"Plant response rating, Lambsquarters",[3]; [23],70
same,"Plant response rating (0 to 100), Lambsquarters",[3]; preemergence,100
same,"Plant response rating, Lambsquarters",[3]; [24],100
same,"Plant response rating, Johnsongrass",[4]; [21],0
same,"Plant response rating, Johnsongrass",[4]; [23],0
same,"Plant response rating (0 to 100), Johnsongrass",[4]; preemergence,25
same,"Plant response rating, Johnsongrass",[4]; [24],0
same,"Plant response rating, Velvetleaf",[5]; [21],0
same,"Plant response rating, Velvetleaf",[5]; [23],0
same,"Plant response rating (0 to 100), Velvetleaf",[5]; preemergence,0
same,"Plant response rating, Velvetleaf",[5]; [24],0
same,"Plant response rating, Corn",corn (Zea mays) [6]; [21],0
same,"Plant response rating, Corn",corn (Zea mays) [6]; [23],0
same,"Plant response rating (0 to 100), Corn",corn (Zea mays) [6]; preemergence,0
same,"Plant response rating, Corn",corn (Zea mays) [6]; [24],0
same,"Plant response rating, Sunflower",Sunflower [7],0
same,"Plant response rating, Morningglory",[8]; [21],0
same,"Plant response rating, Morningglory",[8]; [23],0
same,"Plant response rating (0 to 100), Morningglory",[8]; preemergence,0
same,"Plant response rating, Morningglory",[8]; [24],0
same,"Plant response rating, Goosegrass",[9]; [21],85
same,"Plant response rating, Goosegrass",[9]; [23],40
same,"Plant response rating (0 to 100), Goosegrass",[9]; preemergence,100
same,"Plant response rating, Goosegrass",[9]; [24],100
same,"Plant response rating, Nutsedge",[10]; [21],0
same,"Plant response rating, Nutsedge",[10]; [23],0
same,"Plant response rating (0 to 100), Nutsedge",[10]; preemergence,0
same,"Plant response rating, Nutsedge",[10]; [24],0
same,"Plant response rating, Wild Oat",wild oat (Avena fatua); [21],0
same,"Plant response rating, Wild Oat",wild oat (Avena fatua); [25],60
same,"Plant response rating, Pigweed",[11]; [21],0
same,"Plant response rating, Pigweed",[11]; [25],0
same,"Plant response rating, Crabgrass",[12]; [21],0
same,"Plant response rating, Crabgrass",[12]; [25],30
same,"Plant response rating, Cocklebur",[13]; [21],0
same,"Plant response rating, Cocklebur",[13]; [25],0
same,"Plant response rating, Wheat",[14]; [21],20
same,"Plant response rating, Wheat",[14]; [25],20
same,"Plant response rating, Velvetleaf",[15]; [21],0
same,"Plant response rating, Velvetleaf",[15]; [25],0
same,"Plant response rating, Barnyardgrass",[16]; [21],0
same,"Plant response rating, Barnyardgrass",[16]; [25],0
same,"Plant response rating, Foxtail, Giant",[17]; [21],0
same,"Plant response rating, Foxtail, Giant",[17]; [25],0
same,"Plant response rating, Corn",corn (Zea mays) [18]; [21],0
same,"Plant response rating, Corn",corn (Zea mays) [18]; [25],0
same,"Plant response rating, Surinam grass",[19]; [21],0
same,"Plant response rating, Surinam grass",[19]; [25],40
same,"Plant response rating, Morningglory",[20]; [21],0
same,"Plant response rating, Morningglory",[20]; [25],0
